Measured values published in the NIST ThermoML archive (doi:10.1016/j.jct.2009.07.002).

Assay: isobaric coefficient of expansion
Details: Liquid, DSC with Pressure Shift

CCCCCCO [hexan-1-ol]
isobaric coefficient of expansion
Details	278.15 K	288.15 K	298.15 K	308.15 K	318.15 K	328.15 K	338.15 K	348.15 K
5000 kPa	0.000821 1/K	0.000837 1/K	0.00085 1/K	0.000875 1/K	0.000898 1/K	0.000929 1/K	0.000958 1/K	0.000995 1/K
10000 kPa	0.0008 1/K	0.000819 1/K	0.000832 1/K	0.000853 1/K	0.000877 1/K	0.0009 1/K	0.000929 1/K	0.00096 1/K
15000 kPa	0.000788 1/K	0.000802 1/K	0.000812 1/K	0.000834 1/K	0.000854 1/K	0.000876 1/K	0.000903 1/K	0.000929 1/K
20000 kPa	0.000778 1/K	0.000786 1/K	0.000796 1/K	0.000815 1/K	0.000833 1/K	0.000854 1/K	0.00088 1/K	0.000903 1/K
25000 kPa	0.00076 1/K	0.000772 1/K	0.00078 1/K	0.000796 1/K	0.000812 1/K	0.000833 1/K	0.000854 1/K	0.000875 1/K
30000 kPa	0.000748 1/K	0.000756 1/K	0.000764 1/K	0.000779 1/K	0.000794 1/K	0.000813 1/K	0.000832 1/K	0.000852 1/K
35000 kPa	0.000733 1/K	0.000743 1/K	0.000749 1/K	0.000763 1/K	0.000778 1/K	0.000794 1/K	0.000813 1/K	0.000831 1/K
40000 kPa	0.000723 1/K	0.000731 1/K	0.000734 1/K	0.000747 1/K	0.000758 1/K	0.000776 1/K	0.000791 1/K	0.000808 1/K
45000 kPa	0.000716 1/K	0.00072 1/K	0.000724 1/K	0.000733 1/K	0.000745 1/K	0.000759 1/K	0.000776 1/K	0.000791 1/K
50000 kPa	0.000708 1/K	0.000703 1/K	0.000712 1/K	0.000721 1/K	0.000729 1/K	0.000745 1/K	0.000758 1/K	0.000772 1/K
55000 kPa	0.000699 1/K	0.000696 1/K	0.0007 1/K	0.000709 1/K	0.000719 1/K	0.000731 1/K	0.000744 1/K	0.000754 1/K
